# Measurements: PMC11465516, “Kinetic and Structural Studies of the Plastidial Solanum tuberosum Phosphorylase” (ACS Omega, 2024)
# Where two headings read alike, the source gives them in different places.
# What was measured:
# [1] = target: T1, stPho1 (plastidial Solanum tuberosum phosphorylase) (Solanum tuberosum, UniProt P04045); test: stPho1 enzyme kinetics in the direction of glycogen synthesis; format: biochemical
# T1 construct: stPho1 was purified from a natural source; from tissue; host or cells: Solanum tuberosum mature tubers
# T1 sequence (P04045 51-966): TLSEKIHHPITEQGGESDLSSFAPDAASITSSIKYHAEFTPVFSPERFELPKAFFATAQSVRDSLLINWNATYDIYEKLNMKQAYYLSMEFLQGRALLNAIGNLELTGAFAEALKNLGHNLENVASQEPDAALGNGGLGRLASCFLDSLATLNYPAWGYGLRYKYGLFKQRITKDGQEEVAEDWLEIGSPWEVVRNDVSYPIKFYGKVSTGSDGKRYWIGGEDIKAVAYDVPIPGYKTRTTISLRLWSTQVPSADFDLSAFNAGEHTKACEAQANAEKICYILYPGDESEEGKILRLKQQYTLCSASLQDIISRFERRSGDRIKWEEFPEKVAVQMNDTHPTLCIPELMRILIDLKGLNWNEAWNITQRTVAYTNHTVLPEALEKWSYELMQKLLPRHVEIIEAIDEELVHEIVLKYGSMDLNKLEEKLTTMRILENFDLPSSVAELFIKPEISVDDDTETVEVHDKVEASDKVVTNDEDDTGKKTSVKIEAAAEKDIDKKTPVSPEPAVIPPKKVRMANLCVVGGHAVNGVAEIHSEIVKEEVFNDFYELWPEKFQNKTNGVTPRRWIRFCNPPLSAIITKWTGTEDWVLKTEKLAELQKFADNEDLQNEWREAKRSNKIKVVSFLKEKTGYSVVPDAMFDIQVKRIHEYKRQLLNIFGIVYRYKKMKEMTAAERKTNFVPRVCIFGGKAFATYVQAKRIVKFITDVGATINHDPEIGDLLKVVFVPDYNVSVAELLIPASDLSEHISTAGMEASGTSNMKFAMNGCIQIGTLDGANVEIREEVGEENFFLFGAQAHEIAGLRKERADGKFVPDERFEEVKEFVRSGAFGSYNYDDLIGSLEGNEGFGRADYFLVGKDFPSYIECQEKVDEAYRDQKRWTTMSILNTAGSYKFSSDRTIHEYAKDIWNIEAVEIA
# From the text: (§1) In vitro, stPho1 can perform the reverse reaction in the presence of higher concentrations of Glc-1-P, where the enzyme adds glucose residues on glucans with direct release of orthophosphate ions, which can then be measured spectrophotometrically using the method of Saheki et al.[47] Starch granules are composed of two distinct glucose polymers, amylose and amylopectin.[48] Amylopectin is the major polymer in starch and has α-1,4-linked glucose chains with α-1,6-linked branches every 24–30 glucose units, whereas amylose is composed of long α-1,4-linked linear chains. Kinetic studies were performed using glycogen, whose structure is very similar to that of amylopectin but with more branches (every 8–12 glucose units) due to better solubility. Enzyme assays were performed at 30 °C in the direction of glycogen synthesis using 30 μg/mL of stPho1 or ΔPho1 in a 20 mM sodium citrate buffer (pH 6.0) containing 60 mM KCl, 0.6 mM ethylenediaminetetraacetic acid (EDTA), and 0.6 mM dithiothreitol, using constant concentrations of glycogen (0.2% w/v) and various concentrations of Glc-1-P (3, 4, 6, 10, and 15 mM for stPho1 and 1, 2, 3, 4, 6 mM for stPho1ΔL78) and inhibitors. Initial velocities were calculated from the pseudo-first-order rate constants (k) using the first-order rate equation ([A] = [A]0e^–kt), where [A]0 and [A] are the initial concentration of the sample and the sample’s concentration at various times, respectively, and t is the corresponding time (min) following a previously established protocol,[54] and the nonlinear regression program GraFit[50] with an explicit value was used for calculating the standard deviation of each point.[49]
# (§2) To establish the optimum pH and temperature for enzyme activity, we first measured the enzymatic activity in the 4.5–8.5 pH range. Kinetic studies were performed in the direction of glycogen synthesis using 50 μg/mL of stPho1 using six different buffers (20 mM sodium acetate buffer for pH 4.5 and 5.5, 20 mM sodium citrate buffer for pH 6.0 and 6.5, and 20 mM Tris–HCl for pH 7.5 and 8.5) containing 60 mM KCl, 0.6 mM EDTA, and 0.6 mM dithiothreitol, using constant concentrations of glycogen (0.2% w/v) and Glc-1-P (14 mM) at 30 °C. […] To determine the optimum temperature for the activity, enzymatic assays were performed at temperatures 20, 30, 37, and 45 °C. Kinetic studies were performed in the direction of glycogen synthesis using 50 μg/mL of stPho1 in a 20 mM sodium citrate buffer (pH 6.0) containing 60 mM KCl, 0.6 mM EDTA, and 0.6 mM dithiothreitol, using constant concentrations of glycogen (0.2% w/v) and Glc-1-P (4 mM). […] Since mammalian muscle phosphorylase activity is dependent on the presence of the allosteric activator AMP,[35] we investigated whether the presence of AMP affects the stPho1 enzymatic activity. The effect was tested with 1 mM AMP, using 30 μg/mL of stPho1 in 20 mM sodium citrate buffer (pH 6.0) containing 60 mM KCl, 0.6 mM EDTA, and 0.6 mM dithiothreitol, using a saturating concentration of glycogen (0.2% w/v) and various concentrations of Glc-1-P (3, 6, 10, and 15 mM).
# stPho1ΔL78 [2] = target: T2, stPho1ΔL78 (Solanum tuberosum, UniProt P04045); test: stPho1ΔL78 enzyme kinetics in the direction of glycogen synthesis; format: biochemical
# T2 construct: the N-terminal (residues 23–446) and the C-terminal (residues 511–916); from tissue; host or cells: Solanum tuberosum mature tubers; purified stPho1 left about 4 weeks at room temperature to proteolyse
# From the text: as §1, §2
# [3] = test system: rabbit muscle glycogen phosphorylase b (rmGPb); conditions: cited from earlier work
# rmGPa = target: rmGPa; set-up: method as in PMID 12930991, PMID 3805034, PMID 624732; conditions: cited from earlier work
# mammalian enzyme (GP) = target: mammalian enzyme (GP); set-up: method as in PMID 32771768; conditions: cited from earlier work
# stPho1ΔL78 [4] = test: stPho1ΔL78 enzyme kinetics in the direction of glycogen synthesis; format: biochemical, Solanum tuberosum; conditions: direction of glycan synthesis
# From the text: as §1, §2
# [5] = 30 °C, pH 6.0, glycogen 0.2% w/v
# [6] = 30 °C, pH 6.0, glycogen 0.2% w/v, read-out: Km Glc-1-P
# [7] = 30 °C, pH 6.0, glycogen 0.2% w/v, various Glc-1-P, read-out: Ki
compound,measurement,setting,value
Nc1ncnc2c1ncn2[C@@H]1O[C@H](COP(=O)(O)O)[C@@H](O)[C@H]1O [AMP],"Effect on stPho1 enzymatic activity (Vmax, Km)","[1]; 1 mM AMP, glycogen 0.2% w/v, Glc-1-P 3-15 mM",does not have any effect
"O=P(O)(O)O[C@H]1O[C@H](CO)[C@@H](O)[C@H](O)[C@H]1O [Glc-1-P, glucose-1-phosphate]",Vmax Glc-1-P,[1]; [5],0.37 ± 0.01 µmol/min/mg
same,Km,[1]; [6],2300 ± 200 µM
same,Vmax Glc-1-P + 1 mM AMP,"[1]; + 1 mM AMP, pH 6.0, glycogen 0.2% w/v",0.39 ± 0.01 µmol/min/mg
same,Km,"[1]; read-out: Km Glc-1-P + 1 mM AMP, + 1 mM AMP, pH 6.0, glycogen 0.2% w/v",2400 ± 200 µM
same,Vmax Glc-1-P,stPho1ΔL78 [2]; [5],0.32 ± 0.02 µmol/min/mg
same,Km,stPho1ΔL78 [2]; [6],1400 ± 200 µM
same,Vmax Glc-1-P + 1 mM AMP,[3]; + 1 mM AMP,64[63] μmol/min/mg
same,Vmax Glc-1-P,[3],2.9[63] μmol/min/mg
same,Km,"[3]; read-out: Km Glc-1-P + 1 mM AMP, + 1 mM AMP",9000 µM
same,Km,[3]; read-out: Km Glc-1-P,28000 µM
C[C@H]1O[C@H](O[C@H]2[C@H](O)[C@@H](O)[C@@H](O[C@H]3[C@H](O)[C@@H](O)C(O)O[C@@H]3CO)O[C@@H]2CO)[C@H](O)[C@@H](O)[C@@H]1N[C@H]1C=C(CO)[C@@H](O)[C@H](O)[C@H]1O (some centres unmarked) [acarbose],Ki,rmGPa,26 mM
Cn1c(=O)c2c(ncn2C)n(C)c1=O [caffeine],Ki,[3]; in the presence of 1 mM AMP,0.13 mM
O=c1c(O)c(-c2ccc(O)c(O)c2)oc2cc(O)cc(O)c12 [quercetin],Ki,mammalian enzyme (GP),0.032 to 0.069 mM
same,Effect on the enzymatic activity of stPho1,[1]; up to a concentration of 1 mM,did not have any effect
OC[C@H]1O[C@H](O)[C@H](O)[C@@H](O)[C@@H]1O [α-D-glucose],Ki,[1]; [7],42.8 ± 2.6 mM
same,Ki,stPho1ΔL78 [2]; [7],38.4 ± 1.5 mM
same,Ki,[3]; in the presence of 1 mM AMP,3.2 mM
OC[C@H]1O[C@@H]2O[C@H]3[C@H](O)[C@@H](O)[C@@H](O[C@H]4[C@H](O)[C@@H](O)[C@@H](O[C@H]5[C@H](O)[C@@H](O)[C@@H](O[C@H]6[C@H](O)[C@@H](O)[C@@H](O[C@H]7[C@H](O)[C@@H](O)[C@@H](O[C@H]1[C@H](O)[C@H]2O)O[C@@H]7CO)O[C@@H]6CO)O[C@@H]5CO)O[C@@H]4CO)O[C@@H]3CO [α-cyclodextrin],Ki,[3]; glycogen storage site ligands,47.1 mM
OC[C@H]1O[C@@H]2O[C@H]3[C@H](O)[C@@H](O)[C@@H](O[C@H]4[C@H](O)[C@@H](O)[C@@H](O[C@H]5[C@H](O)[C@@H](O)[C@@H](O[C@H]6[C@H](O)[C@@H](O)[C@@H](O[C@H]7[C@H](O)[C@@H](O)[C@@H](O[C@H]8[C@H](O)[C@@H](O)[C@@H](O[C@H]1[C@H](O)[C@H]2O)O[C@@H]8CO)O[C@@H]7CO)O[C@@H]6CO)O[C@@H]5CO)O[C@@H]4CO)O[C@@H]3CO [β-cyclodextrin],Ki,[1],0.0731 ± 0.0059 mM
same,Binding strength in stPho1 relative to rmGPb,[1]; stPho1 forms vs rmGPb,200–450 times
same,Ki,stPho1ΔL78 [2],0.031 ± 0.001 mM
same,Ki,[3]; in the presence of 1 mM AMP,14.1 mM
OC[C@H]1O[C@@H]2O[C@H]3[C@H](O)[C@@H](O)[C@@H](O[C@H]4[C@H](O)[C@@H](O)[C@@H](O[C@H]5[C@H](O)[C@@H](O)[C@@H](O[C@H]6[C@H](O)[C@@H](O)[C@@H](O[C@H]7[C@H](O)[C@@H](O)[C@@H](O[C@H]8[C@H](O)[C@@H](O)[C@@H](O[C@H]9[C@H](O)[C@@H](O)[C@@H](O[C@H]1[C@H](O)[C@H]2O)O[C@@H]9CO)O[C@@H]8CO)O[C@@H]7CO)O[C@@H]6CO)O[C@@H]5CO)O[C@@H]4CO)O[C@@H]3CO [γ-cyclodextrin],Ki,[3]; glycogen storage site ligands,7.4 mM
glycogen,Km × 1000 glycogen,"[1]; 30 °C, pH 6.0",114.2 ± 7.6%
same,Km × 1000 glycogen,"stPho1ΔL78 [2]; 30 °C, pH 6.0",60 ± 9%
same,Affinity of stPho1ΔL78 relative to stPho1,stPho1ΔL78 [4],2 times
same,Km × 1000 glycogen,[3],12^1[63] %
maltoheptaose [maltoheptaose (G7)],Ki,[3]; glycogen storage site ligands,1 mM
